Tests used:
C57BL/6 mice = test: In vivo bioluminescence assay of lipid nanoparticles encapsulated with luciferase mRNA in mice; conditions: for Total photon count in vivo at 6 hours after administration (Total Flux): C57BL/6 mice, intravenous, single dose 0.5 mg/kg luciferase mRNA in LNP, group mean; for in vivo delivery efficiency compared with the molecule without tetramethyl: LNP with luciferase mRNA in mice, compound 20 vs. D1, compound 46 vs. D2
Protocol: (§1) Lipid nanoparticles were prepared by (1) dissolving and mixing ionizable lipid compounds, cholesterol, phospholipids and polyethylene glycolated lipids in ethanol at (molar percentages) 50%, 38.5%, 10% and 1.5%, respectively; (2) dissolving the mRNA active ingredient in 25 mM sodium acetate solution (pH=4.5); (3) using an automated high-throughput microfluidic system to mix the organic phase containing the lipid mixture and the aqueous phase containing the mRNA component in the flow ratio range of 1:1 to 1:4 at a mixing speed of 10 mL/min to 18 mL/min; (4) the prepared lipid nanoparticles (N/P ratio of 6) were diluted with phosphate buffer solution and the nanoparticle solutions were ultrafiltered to the original preparation volume using ultrafiltration tubes (purchased from Millipore) with a cut-off molecular weight of 30 kDa; and (5) the obtained nanoparticles were filtered through a sterile 0.2 μm filter membrane and then stored in a sealed glass vial at low temperature.
The delivery effect and safety of nanoparticles encapsulated with luciferase mRNA (Trilink, L-7202) in mice were evaluated. The test mice were SPF-grade C57BL/6 mice, female, 6-8 weeks old, weighing 18-22 g, and were purchased from SPF (Beijing) Biotechnology Co., Ltd. All animals were acclimatized for more than 7 days prior to the experiment, and had free access to food and water during the experiment. The conditions include alternating light and dark for 12/12 h, the indoor temperature of 20-26° C. and the humidity of 40-70%. The mice were randomly grouped. The lipid nanoparticles encapsulated with luciferase mRNA prepared above were injected into mice by intravenous administration at a single dose of 0.5 mg/kg mRNA, and the mice were subjected to in vivo bioluminescence assay using a Small Animal In Vivo Imaging System (IVIS LUMINA III, purchased from PerkinElmer) at 6 h after administration. The assay was performed as follows: D-luciferin solution was prepared in saline at a concentration of 15 mg/mL, and each mouse was given the substrate by intraperitoneal injection. At ten minutes after administration of the substrate, the mice were anesthetized in an anesthesia chamber with isoflurane at a concentration of 2.5%. The anesthetized mice were placed in IVIS for fluorescence imaging, and data acquisition and analysis were performed on the concentrated distribution area of fluorescence.
The in vivo delivery efficiency of lipid nanoparticle carriers was expressed as the mean values of fluorescence intensity and total photon count in different animals within the same subject group, as shown in Table 5. Higher values of fluorescence intensity and total photon count indicate higher in vivo delivery efficiency of this mRNA fragment by lipid nanoparticles. The lipid nanoparticles containing the cationic lipids of the present disclosure have good in vivo delivery efficiency.

[1] = Encapsulation efficiency of lipid nanoparticles, Quant-It RiboGreen RNA Assay; assay type: physicochemical; conditions: lipid nanoparticle with the cationic lipid, luciferase mRNA
Protocol: as §1
(§2) The particle size and particle size dispersity index (PDI) of the prepared lipid nanoparticles were measured using a Zetasizer Pro (purchased from Malvern Instruments Ltd) and a DynaPro NanoStar (purchased from Wyatt) dynamic light scattering instrument. The degree of RNA encapsulation by lipid nanoparticles was characterized by the Encapsulation Efficiency %, which reflects the degree of binding of lipid nanoparticles to RNA fragments. This parameter was measured by the method of Quant-It™ RiboGreen RNA Assay (purchased from Invitrogen). Lipid nanoparticle samples were diluted in TE buffer (10 mM Tris-HCl, 1 mM EDTA, pH=7.5). A portion of the sample solution was removed, to which 0.5% Triton (Triton X-100) was added, and then allowed to stand at 37° C. for 30 minutes. Immediately after the addition of RIBOGREEN® reaction solution, the fluorescence values were read on a Varioskan LUX multifunctional microplate reader (purchased from Thermofisher) at 485 nm for absorption and 528 nm for emission to give the encapsulation efficiency values.

[2] = Particle size and PDI of lipid nanoparticles by dynamic light scattering; assay type: physicochemical; conditions: lipid nanoparticle with the cationic lipid, cholesterol, DSPC, DMG-PEG2000 (50/38.5/10/1.5 mol%), luciferase mRNA, N/P 6
Protocol: as §1, §2

Structure (SMILES)	Total photon count in vivo at 6 hours after administration (Total Flux) (C57BL/6 mice)	Encapsulation efficiency (%) [1]	Particle size (nm) [2]	Particle size dispersity (PDI) [2]	in vivo delivery efficiency compared with the molecule without tetramethyl (C57BL/6 mice)
CCCCCCCCCOC(=O)C(C)(C)CCCCCC(CCCCCC(C)(C)C(=O)OCC(CCCCC)CCCCCCC)OC(=O)CC1CCN(CCO)CC1 (centres unmarked) [Compound 114]	1.06E+08	93.41%	72.32 nm	0.04	
CCCCCCCCCSC(=O)C(C)(C)CCCCCC(CCCCCC(C)(C)C(=O)SCCCCCCCCC)OC(=O)CC1CCN(CCO)CC1 [Compound 110]	2.06E+08	92.65%	97.59 nm	0.01	
CCCCCCCCCCOC(=O)C(C)(C)CCCCCC(CCCCCC(C)(C)C(=O)OCCCCCCCCCC)OC(=O)C1CCN(C)CC1 [Compound 99]	5.30E+09	90.69%	139.99 nm	0.05	
CCCCCCCCCOC(=O)C(C)(C)CCCCCC(CCCCCC(C)(C)C(=O)OCCCCCCCCC)OC(=O)CCCN(C)C [Compound 20]		71.93%	99.61 nm	0.10	significantly increased in vivo delivery efficiency
CCCCCCCCCCNC(=O)C(C)(C)CCCCCC(CCCCCC(C)(C)C(=O)NCCCCCCCCCC)OC(=O)CN(C)C [Compound 13]	1.08E+06	56.65%	157.10 nm	0.08	
CCCCCCCCC(CCCCCC)OC(=O)C(C)(C)CCCCCC(CCCCCC(C)(C)C(=O)OC(CCCCCC)CCCCCCCC)OC(=O)CCN(C)C (centres unmarked) [Compound 16]	3.97E+07	96.52%	55.39 nm	0.05	
CCCCCCCCCOC(=O)C(C)(C)CCCCCC(CCCCCC(C)(C)C(=O)OCC(CCCCC)CCCCCCC)OC(=O)CCCN(C)C (centres unmarked) [Compound 46]		95.68%	97.30 nm	0.09	significantly increased in vivo delivery efficiency
CC(C)CCCCCCCOC(=O)CCC(C)(C)CCCC(CCCC(C)(C)CCC(=O)OCCCCCCCC(C)C)OC(=O)CCCN(C)C [Compound 127]	3.59E+10	62.35%	83.01 nm	0.05	
CCCCCCCCCOC(=O)C(C)(C)CCCCCC(CCCCCC(C)(C)C(=O)OCCCCCCCCC)OC(=O)CCN(C)C [Compound 3]		86.88%	133.80 nm	0.04	
CCCCCCCCCOC(=O)CCCCCCC(CCCCCCC(=O)OCCCCCCCCC)OC(=O)CCCN(C)C [Compound D1, reference compound]		97.08%	131.2 nm	0.18	
CCCCCCCCCCOC(=O)C(C)(C)CCCCCC(CCCCCC(C)(C)C(=O)OCCCCCCCCCC)OC(=O)CN1CCOCC1 [Compound 91]		102.99%	32.61 nm	0.05	
CCCCCCCCCCSC(=O)C(C)(C)CCCCCC(CCCCCC(C)(C)C(=O)SCCCCCCCCCC)OC(=O)C1CCN(C(C)C)CC1 [Compound 105]		94.67%	78.80 nm	0.05	
CCCCCCCCCCOC(=O)C(C)(C)CCCCCC(CCCCCC(C)(C)C(=O)OCCCCCCCCCC)OC(=O)CCN1CCOCC1 [Compound 90]		83.21%	18.17 nm	0.05	
CCCCCCCCCSC(=O)C(C)(C)CCCCCC(CCCCCC(C)(C)C(=O)SCCCCCCCCC)OC(=O)CC1CCN(C)CC1 [Compound 108]		92.63%	121.41 nm	0.05	
CCCCCCCCCSC(=O)C(C)(C)CCCCCC(CCCCCC(C)(C)C(=O)SCCCCCCCCC)OC(=O)C1CCN(C)CC1 [Compound 106]		85.65%	83.09 nm	0.05	
CCCCCCCCCOC(=O)C(C)(C)CCCCCC(CCCCCC(C)(C)C(=O)OCCCCCCCCC)OC(=O)CC1CCN(CCO)CC1 [Compound 113]	3.59E+08	94.77%	112.65 nm	0.03	
CCCCCCCCN(CCCCCCCC)CCOC(=O)C(C)(C)CCCCCC(CCCCCC(C)(C)C(=O)OCCN(CCCCCCCC)CCCCCCCC)OC(=O)CCN(C)C [Compound 15]	4.89E+08	84.78%	91.68 nm	0.06	
CCCCCCCCCCOC(=O)C(C)(C)CCCCCC(CCCCCC(C)(C)C(=O)OCCCCCCCCCC)OC(=O)CCN(C)C [Compound 1]		91.54%	80.07 nm	0.06	
CC(C)CCCC(C)CCOC(=O)C(C)(C)CCCCCC(CCCCCC(C)(C)C(=O)OCCC(C)CCCC(C)C)OC(=O)CCN(C)C (centres unmarked) [Compound 6]		90.26%	106.18 nm	0.05	
CCCCCCCCCCSC(=O)C(C)(C)CCCCCC(CCCCCC(C)(C)C(=O)OCCCCCCCCC)OC(=O)CCCN(C)C (centres unmarked) [Compound 40]		97.06%	83.90 nm	0.05	
CCCCCCCCCOC(=O)C(C)(C)CCCCCC(CCCCCC(C)(C)C(=O)OCC(CCCCC)CCCCCCC)OC(=O)CC1CCN(C)CC1 (centres unmarked) [Compound 111]		95.12%	141.30 nm	0.06	
CCCCCCC/C=C\COC(=O)CC(C)(C)CCCCC(CCCCC(C)(C)CC(=O)OCC(CCCCC)CCCCCCC)OC(=O)CCCN(C)C (centres unmarked) [Compound 98]		93.28%	107.87 nm	0.13	
CCCCCCCCCCSC(=O)C(C)(C)CCCCCC(CCCCCC(C)(C)C(=O)SCCCCCCCCCC)OC(=O)C1CCN(C)CC1 [Compound 104]		85.54%	71.14 nm	0.06	
CCCCCCCCCOC(=O)CC(C)(C)CCCCC(CCCCC(C)(C)CC(=O)OCCCCCCCCC)OC(=O)CCCN(C)C [Compound 97]	3.37E+09	93.72%	157.00 nm	0.25	
CCCCCCCCCOC(=O)C(C)(C)CCCCCC(CCCCCC(C)(C)C(=O)OCC#CC(CCCCCC)CCCCCC)OC(=O)CCCN(C)C (centres unmarked) [Compound 118]		93.87%	88.33 nm	0.07	
CCCCCCCCCOC(=O)C(C)(C)CCCCCC(CCCCCC(C)(C)C(=O)OCCCCCCCCC)OC(=O)C1CCN(C(C)C)CC1 [Compound 103]		90.97%	148.67 nm	0.04	

From patent US12162819B2, “Ionizable lipid compounds” (Beijing Jitai Pharmaceutical Technology Co., Ltd., priority 2022, dated 2024)
